From patent US7064120B2, “Tricyclic pyridyl carboxamides and derivatives thereof tocolytic oxytocin receptor antagonists” (Wyeth, priority 2001, dated 2006)

These compounds were tested against T1, human vasopressin V2 receptor subtype (Homo sapiens, UniProt P30518) (assay: Vasopressin binding in CHO cell membranes expressing human vasopressin V2 subtype receptors ([3H]arginine vasopressin radioligand binding)). Settings: 100 nM.
T1 construct: host or cells: CHO cells, stably transfected (pZeoSV vector)
How it was run: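 Values are IC50 in nM or percent inhibition at a stated concentration, from scintillation counts after filtration. Binding ran 60 min at room temperature: [3H]arginine vasopressin, human V2-transfected CHO membranes (25 to 50 μg protein/well), pH 7.4 Tris-HCl buffer containing MgCl2, BSA, protease inhibitors.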

T1 sequence (P30518 whole entry): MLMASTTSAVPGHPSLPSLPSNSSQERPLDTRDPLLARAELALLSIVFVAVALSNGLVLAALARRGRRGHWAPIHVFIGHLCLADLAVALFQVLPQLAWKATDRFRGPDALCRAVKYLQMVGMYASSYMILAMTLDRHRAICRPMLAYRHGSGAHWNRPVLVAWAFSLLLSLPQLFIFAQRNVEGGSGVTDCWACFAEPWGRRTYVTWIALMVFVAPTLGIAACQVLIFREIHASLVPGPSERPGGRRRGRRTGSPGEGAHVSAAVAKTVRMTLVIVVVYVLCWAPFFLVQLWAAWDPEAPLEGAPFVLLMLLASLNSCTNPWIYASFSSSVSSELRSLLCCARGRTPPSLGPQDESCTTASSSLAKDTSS

SMILES | V2 % inhibition @ 100 nM | inhibition at 0.1 µM
Cc1cc(C(=O)N2Cc3ccc(C(=O)N4CCN(c5ccncc5)CC4)n3Cc3ccccc32)ccc1-c1ccccc1C(F)(F)F [Example 1] | 18% | 
COc1ccccc1-c1ccc(C(=O)N2Cc3ccc(C(=O)N(C)CCc4ccccn4)n3Cc3ccccc32)cc1C [Example 65, 10-[(2′-Methoxy-2-methyl-[1,1′-biphenyl]-4-yl)carbonyl]-N-methyl-N-[2-(2-pyridinyl)ethyl]-10,11-dihydro-5H-pyrrolo[2,1-c][1,4]benzodiazepine-3-carboxamide] |  | 16%
Cc1ccccc1-c1ccc(C(=O)N2Cc3ccc(C(=O)N(C)CCc4ccccn4)n3Cc3ccccc32)cc1C [Example 66, 10-[(2,2′-Dimethyl-[1,1′-biphenyl]-4-yl)carbonyl]-N-methyl-N-[2-(2-pyridinyl)ethyl]-10,11-dihydro-5H-pyrrolo[2,1-c][1,4]benzodiazepine-3-carboxamide] |  | 24%
COc1ccccc1-c1ccc(C(=O)N2Cc3ccc(C(=O)N(C)CCc4ccccn4)n3Cc3ccccc32)cc1 [Example 67, 10-[(2′-Methoxy-[1,1′-biphenyl]-4-yl)carbonyl]-N-methyl-N-[2-(2-pyridinyl)ethyl]-10,11-dihydro-5H-pyrrolo[2,1-c][1,4]benzodiazepine-3-carboxamide] |  | 24%
Cc1ccccc1-c1ccc(C(=O)N2Cc3ccc(C(=O)N(C)CCc4ccccn4)n3Cc3ccccc32)cc1 [Example 68, N-Methyl-10-[(2′-methyl-[1,1′-biphenyl]-4-yl)carbonyl]-N-[2-(2-pyridinyl)ethyl]-10,11-dihydro-5H-pyrrolo[2,1-c][1,4]benzodiazepine-3-carboxamide] |  | 13%
COc1cc(C(=O)N2Cc3ccc(C(=O)N(C)CCc4ccccn4)n3Cc3ccccc32)ccc1-c1ccccc1C [Example 69, 10-[(2-Methoxy-2′-methyl-[1,1′-biphenyl]-4-yl)carbonyl]-N-methyl-N-[2-(2-pyridinyl)ethyl]-10,11-dihydro-5H-pyrrolo[2,1-c][1,4]benzodiazepine-3-carboxamide] |  | 15%
COc1cccc(-c2cc(OC)c(C(=O)N3Cc4ccc(C(=O)N(C)CCc5ccccn5)n4Cc4ccccc43)cc2Cl)c1 [Example 70, 10-[(6-Chloro-3,3′-dimethoxy-[1,1′-biphenyl]-4-yl)carbonyl]-N-methyl-N-[2-(2-pyridinyl)ethyl]-10,11-dihydro-5H-pyrrolo[2,1-c][1,4]benzodiazepine-3-carboxamide] |  | 10%
COc1cc(C(=O)N2Cc3ccc(C(=O)N(C)CCc4ccccn4)n3Cc3ccccc32)ccc1-c1cccc2ccccc12 [Example 71, 10-[3-Methoxy-4-(naphthalen-1-yl)benzoyl]-N-methyl-N-[2-(2-pyridinyl)ethyl]-10,11-dihydro-5H-pyrrolo[2,1-c][1,4]benzodiazepine-3-carboxamide] |  | 24%
COc1cccc(-c2ccc(C(=O)N3Cc4ccc(C(=O)N(C)CCc5ccccn5)n4Cc4ccccc43)cc2OC)c1 [Example 72, 10-[(2,3′-Dimethoxy-[1,1′-biphenyl]-4-yl)carbonyl]-N-methyl-N-[2-(2-pyridinyl)ethyl]-10,11-dihydro-5H-pyrrolo[2,1-c][1,4]benzodiazepine-3-carboxamide] |  | 11%
CN(CCc1ccccn1)C(=O)c1ccc2n1Cc1ccccc1N(C(=O)c1ccc(-c3cccc4ccccc34)cc1Cl)C2 [Example 73, 10-[2-Chloro-4-(naphthalen-1-yl)benzoyl]-N-methyl-N-[2-(2-pyridinyl)ethyl]-10,11-dihydro-5H-pyrrolo[2,1-c][1,4]benzodiazepine-3-carboxamide] |  | 16%
Cc1cc(C(=O)N2Cc3ccc(C(=O)N(C)CCc4ccccn4)n3Cc3ccccc32)ccc1-c1ccccc1C(F)(F)F [Example 74, N-Methyl-10-{[2-methyl-2′-trifluoromethyl-[1,1′-biphenyl]-4-yl]carbonyl}-N-[2-(2-pyridinyl)ethyl]-10,11-dihydro-5H-pyrrolo[2,1-c][1,4]benzodiazepine-3-carboxamide] |  | 1%
COc1ccccc1-c1ccc(C(=O)N2Cc3ccc(C(=O)N4CCN(c5ccccn5)CC4)n3Cc3ccccc32)cc1C [Example 75, {10-[(2′-Methoxy-2-methyl-[1,1′-biphenyl]-4-yl)carbonyl]-10,11-dihydro-5H-pyrrolo[2,1-c][1,4]benzodiazepin-3-yl}[4-(2-pyridinyl)-1-piperazinyl]methanone] |  | 9%
Cc1ccccc1-c1ccc(C(=O)N2Cc3ccc(C(=O)N4CCN(c5ccccn5)CC4)n3Cc3ccccc32)cc1C [Example 76, {10-[(2,2′-Dimethyl-[1,1′-biphenyl]-4-yl)carbonyl]-10,11-dihydro-5H-pyrrolo[2,1-c][1,4]benzodiazepin-3-yl}[4-(2-pyridinyl)-1-piperazinyl]methanone] |  | 21%
COc1cccc(-c2ccc(C(=O)N3Cc4ccc(C(=O)N5CCN(c6ccccn6)CC5)n4Cc4ccccc43)cc2C)c1 [Example 77, {10-[(3′-Methoxy-2-methyl-[1,1′-biphenyl]-4-yl)carbonyl]-10,11-dihydro-5H-pyrrolo[2,1-c][1,4]benzodiazepin-3-yl}[4-(2-pyridinyl)-1-piperazinyl]methanone] |  | 10%
COc1ccccc1-c1ccc(C(=O)N2Cc3ccc(C(=O)N4CCN(c5ccccn5)CC4)n3Cc3ccccc32)cc1 [Example 78, {10-[(2′-Methoxy-[1,1′-biphenyl]-4-yl)carbonyl]-10,11-dihydro-5H-pyrrolo[2,1-c][1,4]benzodiazepin-3-yl}[4-(2-pyridinyl)-1-piperazinyl]methanone] |  | 8%
Cc1ccccc1-c1ccc(C(=O)N2Cc3ccc(C(=O)N4CCN(c5ccccn5)CC4)n3Cc3ccccc32)cc1 [Example 79, {10-[(2′-Methyl-[1,1′-biphenyl]-4-yl)carbonyl]-10,11-dihydro-5H-pyrrolo[2,1-c][1,4]benzodiazepin-3-yl}[4-(2-pyridinyl)-1-piperazinyl]methanone] |  | 10%
COc1cc(C(=O)N2Cc3ccc(C(=O)N4CCN(c5ccccn5)CC4)n3Cc3ccccc32)ccc1-c1ccccc1C [Example 80, {10-[(2-Methoxy-2′-methyl-[1,1′-biphenyl]-4-yl)carbonyl]-10,11-dihydro-5H-pyrrolo[2,1-c][1,4]benzodiazepin-3-yl}[4-(2-pyridinyl)-1-piperazinyl]methanone] |  | 8%

Same assay, conditions: value in parentheses

SMILES | IC50
Cc1cc(C(=O)N2Cc3ccc(C(=O)N4CCN(Cc5ccc[n+]([O-])c5)CC4)n3Cc3ccccc32)ccc1-c1ccccc1C(F)(F)F [Example 2, 10-{[2-Methyl-2′-trifluoromethyl-[1,1′-biphenyl]-4-yl]carbonyl}-3-({4-[(1-oxidopyridin-3-yl)methyl]piperazin-1-yl}carbonyl)-10,11-dihydro-5H-pyrrolo[2,1-c][1,4]benzodiazepine] | 1420 nM
Cc1cc(C(=O)N2Cc3ccc(C(=O)N4CCN(Cc5ccc[n+]([O-])c5C)CC4)n3Cc3ccccc32)ccc1-c1ccccc1C(F)(F)F [Example 3, 3-({4-[(2-Methyl-1-oxidopyridin-3-yl)methyl]piperazin-1-yl}carbonyl)-10-{[2-methyl-2′-trifluoromethyl-[1,1′-biphenyl]-4-yl]carbonyl}-10,11-dihydro-5H-pyrrolo[2,1-c][1,4]benzodiazepine] | > 3000 nM
Cc1cc(C(=O)N2Cc3ccc(C(=O)N(C)Cc4ccc[n+]([O-])c4)n3Cc3ccccc32)ccc1-c1ccccc1C(F)(F)F [Example 4, N-Methyl-10-{[2-methyl-2′-trifluoromethyl-[1,1′-biphenyl]-4-yl]carbonyl}-N-[(1-oxidopyridin-3-yl)methyl]-10,11-dihydro-5H-pyrrolo[2,1-c][1,4]benzodiazepine-3-carboxamide] | 464 nM
COc1cc(-c2ccccc2C(F)(F)F)c(Cl)cc1C(=O)N1Cc2ccc(C(=O)N(C)Cc3cccnc3)n2Cc2ccccc21 [Example 5, 10-{[6-Chloro-3-methoxy-2′-trifluoromethyl-[1,1′-biphenyl]-4-yl]carbonyl}-N-methyl-N-(pyridin-3-ylmethyl)-10,11-dihydro-5H-pyrrolo[2,1-c][1,4]benzodiazepine-3-carboxamide] | 433 nM
COc1cc(-c2ccccc2Cl)c(Cl)cc1C(=O)N1Cc2ccc(C(=O)N(C)Cc3cccnc3)n2Cc2ccccc21 [Example 6, 10-[(2′,6-Dichloro-3-methoxy-[1,1′-biphenyl]-4-yl)carbonyl]-N-methyl-N-(pyridin-3-ylmethyl)-10,11-dihydro-5H-pyrrolo[2,1-c][1,4]benzodiazepine-3-carboxamide] | 309 nM
COc1cc(C(=O)N2Cc3ccc(C(=O)N(C)Cc4cccnc4)n3Cc3ccccc32)ccc1-c1ccccc1C(F)(F)F [Example 7, 10-{[2-Methoxy-2′-trifluoromethyl-[1,1′-biphenyl]-4-yl]carbonyl}-N-methyl-N-(pyridin-3-ylmethyl)-10,11-dihydro-5H-pyrrolo[2,1-c][1,4]benzodiazepine-3-carboxamide] | 407 nM
COc1cc(C(=O)N2Cc3ccc(C(=O)N(C)Cc4ccc[n+]([O-])c4)n3Cc3ccccc32)ccc1-c1ccccc1C(F)(F)F [Example 8, 10-{[2-Methoxy-2′-trifluoromethyl-[1,1′-biphenyl]-4-yl]carbonyl}-N-methyl-N-(1-oxo-pyridin-3-ylmethyl)-10,11-dihydro-5H-pyrrolo[2,1-c][1,4]benzodiazepine-3-carboxamide] | 237 nM
COc1cccc(-c2ccc(C(=O)N3Cc4ccc(C(=O)N(C)CCc5ccccn5)n4Cc4ccccc43)cc2C)c1 [Example 62, 10-[(3′-Methoxy-2-methyl-[1,1′-biphenyl]-4-yl)carbonyl]-N-methyl-N-[2-(2-pyridinyl)ethyl]-10,11-dihydro-5H-pyrrolo[2,1-c][1,4]benzodiazepine-3-carboxamide] | 1490 nM
COc1cc(-c2ccccc2C)c(Cl)cc1C(=O)N1Cc2ccc(C(=O)N(C)CCc3ccccn3)n2Cc2ccccc21 [Example 63, 10-[(6-Chloro-3-methoxy-2′-methyl-[1,1′-biphenyl]-4-yl)carbonyl]-N-methyl-N-[2-(2-pyridinyl)ethyl]-10,11-dihydro-5H-pyrrolo[2,1-c][1,4]benzodiazepine-3-carboxamide] | 714 nM
